In one data set the test system is telomerase. In words: Inhibition of telomerase, biochemical (FlashPlate) assay. On the set-up: species or system human. The following applies: NPS linkages unless NP backbone stated.
The subject of the next data set is CAG MM cell line. The class given is in vivo, NOD/SCID mice. The following applies: Group 4, intravenous 0.25 mg/kg; p<0.01. The method, then: The CAG MM cell line (telomere length 2.7 Kb) was transfected with a retroviral vector encoding a triple fusion gene for HSV-TK, firefly luciferase and green fluorescence protein, and whole animal bioluminescence imaging was undertaken in a disseminated NOD/SCID model with extensive spinal cord and bone marrow tumor infiltration. NOD/SCID mice were not irradiated with gamma ray before cell implantation. […] Bortezomib was administered intravenously at a dose of 0.25 mg/kg (Table 1).
The results are discussed in Section IVA above, with reference to FIGS. 4A-B.

Strand notation (5' to 3'): a small letter for the sugar, then the base; units joined by * are phosphorothioate-linked, units joined directly phosphodiester-linked; [ ] holds rarer units or linkages, { } end groups; capitals alone tell only the bases. [NPS] = N3'→P5' thiophosphoramidate internucleoside linkage; [NP] = N3'→P5' phosphoramidate internucleoside linkage; d = 2'-deoxy (DNA)

Take “Mismatch of GRN163 sequence: NPS oligonucleotide TAGGTGTAAGCAA (SEQ ID NO: 23) (DNA, all [NPS], methylation of C not given here)”: in the data set on telomerase, the IC50 (usually the concentration at which inhibition is half-maximal) worked out at 80 ± 31 nM.

The compound “12-mer; truncation of GRN163 sequence: NPS oligonucleotide TAGGGTTAGACA (SEQ ID NO: 14) (DNA, all [NPS], methylation of C not given here)” registered an IC50 in the data set with telomerase of 0.36 ± 0.2 nM.

Regarding “Alternative targeting 11-mer: NPS oligonucleotide GTTAGGGTTAG (SEQ ID NO: 16) (DNA dG[NPS]dT[NPS]dT[NPS]dA[NPS]dG[NPS]dG[NPS]dG[NPS]dT[NPS]dT[NPS]dA[NPS]dG)”, the midpoint of inhibition in the data set with telomerase, the IC50, lay at 0.51 ± 0.13 nM.

For the compound “Alternative targeting 13-mer: NPS oligonucleotide CAGTTAGGGTTAG (SEQ ID NO: 13), complementary to nucleotides 46-58 of SEQ ID NO: 1 (DNA, all [NPS], methylation of C not given here)”, the IC50 in the data set with telomerase is 0.049 ± 0.007 nM.

The compound “Mismatch of alternative targeting 11-mer: NPS oligonucleotide GTTGAGTGTAG (SEQ ID NO: 25) (DNA dG[NPS]dT[NPS]dT[NPS]dG[NPS]dA[NPS]dG[NPS]dT[NPS]dG[NPS]dT[NPS]dA[NPS]dG)” returned an IC50 with telomerase of 177 ± 93 nM.

In the data set on telomerase, “Oligo-T 10-mer: Oligonucleotide TTTTTTTTTT (SEQ ID NO: 27)” yielded an IC50 of more than 1000 nM.

On to “Telomere repeat unit: Oligonucleotide TTAGGG (SEQ ID NO: 26)”, for which the IC50 in the data set on telomerase is more than 1000 nM.

On to `CC(C)C[C@H](NC(=O)[C@H](Cc1ccccc1)NC(=O)c1cnccn1)B(O)O` [bortezomib], for which the “survival relative to PBS controls” value with CAG MM cell line is reported as “significant increase”.

As for “Mismatch of GRN163 sequence with NP backbone: TAGGTGTAAGCAA with NP backbone (DNA, all [NP], methylation of C not given here)”, the IC50 in the data set with telomerase was more than 1000 nM.

As to “11-mer; truncation of GRN163 sequence: NPS oligonucleotide TAGGGTTAGAC (SEQ ID NO: 15) (DNA, all [NPS], methylation of C not given here)”, in the data set with telomerase, the half-maximal inhibitory concentration (IC50) is 0.85 ± 0.35 nM.

“Duplex of GRN163 sequence: Duplex TAGGGTTAGACAA / ATCCCAATCTGTT (chemistry not fully specified; one strand is listed 3' to 5')” returned an IC50 in the data set with telomerase of 8.9 ± 3 nM.

For “Complement of GRN163 sequence: NPS oligonucleotide TTGTCTAACCCTA (SEQ ID NO: 24) (DNA, all [NPS], methylation of C not given here)”, half-maximal inhibition with telomerase (IC50) required 1000 ± 46 nM.

The values above are taken from US7998938B2, “Cancer treatment by combined inhibition of proteasome and telomerase activities” (Geron Corporation, priority 2005, dated 2011).
